Source: article PMC3640414 (Journal of Medicinal Chemistry, 2013)

Experiments:
[1] = Stability of 8 in buffer (chiral HPLC); format: physicochemical; conditions: 2 h in 50 mM HEPES, 0.01% TWEEN, 0.1% BSA
Method: vacuum manifold with the inert gas passing through a bed of activated 4 Å molecular sieves and self-indicating silica gel. Cs2CO3, K2CO3 and activated MnO2 were dried in an oven prior to use.
PhMgBr (in THF) was titrated against salicaldehyde phenylhydrazone prior to use, according to the procedure of Love and Jones.9
Reactions with microwave irradiation were carried out in a Biotage Initiator microwave […]
In vacuo refers to the use of a rotary evaporator attached to a diaphragm pump. Brine refers to a saturated aqueous solution of sodium chloride. Petroleum ether refers to the fraction boiling between 30–40 °C unless otherwise stated.
Stability of 8 in buffer: 0.5 mg of (+)-8 in 10 μL DMSO was suspended in buffer (50 mM HEPES, 0.01% TWEEN, 0.1% BSA). […]
Cytotoxcity of 8 in HeLa and U2OS cells: HeLa cells were grown and maintained in DMEM supplemented with L-glutamine and 10% fetal calf serum; U2OS cells were grown and maintained in McCoy’s medium supplemented with 10% fetal calf serum. […] After 24 h or 72 h, 10 μL of WST-1 (Roche Diagnostics) was added to the culture medium and cell viability was determined by colorimetric WST-1 conversion assay. Formazan dye formation was measured at 450 nm using a Molecular devices Spectramax Plus384 microplate reader. Relative WST-1 conversion in treated cells compared with untreated control cells was calculated after […]

[2] = tested on: HeLa (cervical adenocarcinoma) cells; test: WST-1 viability assay, HeLa cells; format: cell-based; conditions: Homo sapiens, 72 h, read-out: IC50, HeLa (cervical adenocarcinoma)
[3] = tested on: U2OS (osteosarcoma) cells; test: WST-1 viability assay, U2OS cells; format: cell-based; conditions: Homo sapiens, 72 h, read-out: IC50, U2OS (osteosarcoma)
BRD4(1) = target: T1, BRD4(1) (Homo sapiens, UniProt O60885); test: AlphaScreen peptide displacement assay (ALPHA), BRD4(1); format: binding
T1 construct: amplify the N-terminal bromodomain region of the protein; made in house

[4] = target: bromodomain of cAMP response element binding protein (CREB) binding protein (UniProt Q92793 1081-1197); test: AlphaScreen or HTRF; peptide displacement ALPHA assay; CREBBP bromodomain and biotinylated H3K56Ac peptide, protein and peptide concentration 200 nM (Table 1) or 50 nM (Table 2); small-molecule competitors; duplicate on the same plate; conditions: both partners purified
Sequence of bromodomain of cAMP response element binding protein (CREB) binding protein (Q92793 1081-1197): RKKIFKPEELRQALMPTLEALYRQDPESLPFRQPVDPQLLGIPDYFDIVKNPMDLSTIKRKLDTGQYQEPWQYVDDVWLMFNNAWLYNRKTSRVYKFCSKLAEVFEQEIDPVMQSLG

Q: For `Cc1noc(C)c1-c1cc(O)cc([C@@H](O)c2ccccc2)c1` [(S)-(+)-8, 3-(3,5-Dimethylisoxazol-4-yl)-5-(hydroxy(phenyl)methyl)phenol], which “enantiomeric excess after incubation in buffer” value [1] is on record?
A: > 98 % ee

Q: What about the “purity after incubation in buffer” value [1] of the same molecule?
A: 95%

Q: Which IC50 [2] does the source give for `Cc1sc2c(c1C)C(c1ccc(Cl)cc1)=N[C@@H](CC(=O)OC(C)(C)C)c1nnc(C)n1-2` [(+)-JQ1, reference compound] here?
A: 2100 nM

Q: And the IC50 [3]?
A: 2900 nM

Q: For `CCOc1cc(-c2c(C)noc2C)cc(C(O)c2ccccc2)c1` (stereo not shown) [Compound 12, (3-(3,5-Dimethylisoxazol-4-yl)-5-ethoxyphenyl)(phenyl)methanol], which “selectivity for BRD4(1) over CREBBP bromodomain” value (BRD4(1); comparison of ALPHA IC50 values) is on record?
A: approximately 6 fold

Q: And the ligand efficiency (BRD4(1); for BRD4(1))?
A: 0.36

B1: H3K56Ac peptide (peptide)
peptide: ALREIRRYQKSTELLIRKLK
modifications: K(Ac) (acetyl-lysine) at the 10th residue (K56 of histone H3 by the peptide's name); K(biotin) at the C-terminal lysine
Q: Does B1 bind [4]?
A: binds
